In series [1] the test system is HT-29 (colon cancer cell line). Nature of the series: Antiproliferative assay, HT-29. In kind it is cell-based. The settings on record: Homo sapiens, read-out: Antiproliferative Activity IC50 ± SEM HT-29. Here is the method:
(§1) For ease of manipulation, the average (GI50) versus the four cancer cell lines was used.
(§2) To investigate the antiproliferative potential of 3a–e, 4a–c, and 5a–c, the MTT assay was carried out using various cell lines in accordance with previously reported procedures. See Appendix SA (Supplementary Materials). […]
(§3) ethylenediamine tetra acetic acid (EDTA) was used to passage the cells after every 2-3 days. 96-well flat-bottomed cell culture plates were used to seed the cells at a density of 10^4 cells mL-1. The medium was aspirated from all the wells of culture plates after 24 h followed by the addition of synthesized compounds (in 200 μL medium to yield a final concentration of 0.1% (v/v) dimethylsulfoxide) into individual wells of the plates.
(§4) Four wells were designated to a single compound. The plates were allowed to incubate at 37°C for 96 h. Afterwards, the medium was aspirated and 3-[4,5-dimethylthiazol-2-yl]-2,5-diphenyltetrazolium bromide (MTT) (0.4 mg/mL) in medium was added to each well and subsequently incubated for 3 h. The medium was aspirated and 150 μL dimethyl sulfoxide (DMSO) was added to each well. The plates were vortexed followed by the measurement of absorbance at 540 nm on a microplate reader. The results were presented as inhibition (%) of proliferation in contrast to controls comprising 0.1% 4.2.1.2. Assay for antiproliferative effect
(§5) To explore the antiproliferative potential of compounds propidium iodide fluorescence assay was performed using different cell lines such as Panc-1 (pancreas cancer cell […]
(§6) (epithelial cancer cell line), respectively. To calculate the total nuclear DNA, a fluorescent dye (propidium iodide, PI) is used which can attach to the DNA, thus offering a quick and precise technique. PI cannot pass through the cell membrane and its signal intensity can be considered as directly proportional to quantity of cellular
(§7) DNA. Cells whose cell membranes are damaged or have changed permeability are counted as dead ones. The assay was performed by seeding the cells of different cell lines at a density of 3000-7500 cells/well (in200μl medium) in culture plates followed […]
(§8) The medium was removed; the compounds were added to the plates at 10 μM concentrations (in 0.1% DMSO) in triplicates, followed by incubation for 48h. DMSO (0.1%) was used as control. After incubation, medium was removed followed by the addition of PI (25 μl, 50μg/mL in water/medium) to each well of the plates. At -80 °C, the plates were allowed to freeze for 24 h, followed by thawing at 25 °C. A fluorometer (Polar-Star BMG Tech) was used to record the readings at excitation and emission wavelengths of 530 and 620 nm for each well. The percentage cytotoxicity of compounds was calculated using the following formula:
(§9) Where ATC= Absorbance of treated cells and AC= Absorbance of control. […]
(§10) was used as positive control in the assay. […]

The subject of series [2] is four human cancer cell lines (Panc-1, MCF-7, HT-29, A-549). Nature of the series: Antiproliferative assay, average (GI50) versus the four cancer cell lines. In kind it is cell-based. The conditions noted are these: for GI50: Homo sapiens, average versus the four cancer cell lines; for fold less potent than 3e (GI50): relative to 3e GI50 29 nM. The protocol:
as §1, §2, §3, §4, §5, §6, §7, §8, §9, §10

Series [3] has as its system MCF-7 (breast cancer cell line). Nature of the series: Antiproliferative assay, MCF-7. It is filed as cell-based. The conditions noted are these: Homo sapiens, MCF7; read-out: Antiproliferative Activity IC50 ± SEM MCF-7. Here is the method:
as §1, §2, §3, §4, §5, §6, §7, §8, §9, §10

The subject of series [4] is Panc-1 (pancreatic cancer cell line). Put plainly: Antiproliferative assay, Panc-1. In kind it is cell-based. The conditions noted are these: Homo sapiens, read-out: Antiproliferative Activity IC50 ± SEM Panc-1. The protocol:
as §1, §2, §3, §4, §5, §6, §7, §8, §9, §10

Series [5] in a line: Cell viability assay (MTT) on normal mammary epithelial cells. The settings on record: human, MCF-10A normal mammary gland epithelial cells, four days of incubation. In kind it is cell-based. Here is the method:
The viability test was performed on a normal human mammary gland epithelial cell line (MCF-10A). The MTT test was used to assess the viability of compounds 3a–e, 4a–c, and 5a–c.
The MTT assay was used to determine how the synthesized compounds affected the viability of mammary epithelial cells (MCF-10A). See Appendix SA (Supplementary Materials). […]
4.2. Biological evaluation
4.2.1. Cytotoxic activity using MTT Assay and evaluation of IC50
MTT assay was performed to investigate the effect of the synthesized compounds on mammary epithelial cells (MCF-10A). The cells were propagated in medium consisting of Ham's F-12 medium/ Dulbecco's modified Eagle's medium (DMEM) (1:1) supplemented with 10% foetal calf serum, 2 mM glutamine, insulin (10 μg/mL), hydrocortisone (500 ng/mL) and epidermal growth factor (20 ng/mL). Trypsin ethylenediamine tetra acetic acid (EDTA) was used to passage the cells after every 2-3 days. 96-well flat-bottomed cell culture plates were used to seed the cells at a density of 10^4 cells mL-1. The medium was aspirated from all the wells of culture plates after 24 h followed by the addition of synthesized compounds (in 200 μL medium to yield a final concentration of 0.1% (v/v) dimethylsulfoxide) into individual wells of the plates.
Four wells were designated to a single compound. The plates were allowed to incubate at 37°C for 96 h. Afterwards, the medium was aspirated and 3-[4,5-dimethylthiazol-2-yl]-2,5-diphenyltetrazolium bromide (MTT) (0.4 mg/mL) in medium was added to each well and subsequently incubated for 3 h. The medium was aspirated and 150 μL dimethyl sulfoxide (DMSO) was added to each well. The plates were vortexed followed by the measurement of absorbance at 540 nm on a microplate reader. […]

For series [6], the system named is A-549 (epithelial cancer cell line). Put plainly: Antiproliferative assay, A-549. It is filed as cell-based. The settings on record: Homo sapiens, A549; read-out: Antiproliferative Activity IC50 ± SEM A-549. Here is the method:
as §1, §2, §3, §4, §5, §6, §7, §8, §9, §10

Series [7] deals with T1, EGFR (Homo sapiens, UniProt P00533). Nature of the series: EGFR-TK inhibitory assay.
T1 sequence (P00533 669-1210): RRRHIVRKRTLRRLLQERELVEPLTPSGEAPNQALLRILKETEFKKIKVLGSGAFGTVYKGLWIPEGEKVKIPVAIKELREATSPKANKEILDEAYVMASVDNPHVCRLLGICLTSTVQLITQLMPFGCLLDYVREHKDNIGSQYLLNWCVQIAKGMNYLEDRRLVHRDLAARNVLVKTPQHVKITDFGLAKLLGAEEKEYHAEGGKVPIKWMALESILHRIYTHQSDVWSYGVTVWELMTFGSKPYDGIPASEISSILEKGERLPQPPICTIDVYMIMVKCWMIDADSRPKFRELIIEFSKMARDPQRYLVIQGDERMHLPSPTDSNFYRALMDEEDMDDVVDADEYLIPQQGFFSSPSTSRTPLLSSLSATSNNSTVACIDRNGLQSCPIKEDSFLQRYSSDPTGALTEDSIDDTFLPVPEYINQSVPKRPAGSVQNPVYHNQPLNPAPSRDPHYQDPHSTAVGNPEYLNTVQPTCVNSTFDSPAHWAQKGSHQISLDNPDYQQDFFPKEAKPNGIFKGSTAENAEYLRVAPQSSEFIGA
Series [8] addresses T2, BRAF^V600E (Mus musculus, UniProt P28028, V585E).
T2 construct: Mouse full-length GST-tagged; GST; purchased Invitrogen PV3849
Put plainly: V600E mutant BRAF kinase assay. In kind it is biochemical. The settings on record: for IC50: read-out: BRAF^V600E Inhibition IC50 ± SEM. The protocol:
V600E mutant BRAF kinase assay was performed to investigate the activity of […]
Mouse full-length GST-tagged
BRAFV600E (7.5 ng, Invitrogen, PV3849) was pre -incubated with drug (1 µL) and assay dilution buffer (4 µL) for 6 0 min at 25 °C. In assay dilution buffer, a solution (5 µL) containing MgCl2 (30 mM), ATP (200 µM), recombinant human full length (200 ng) […] N-terminal His-tagged MEK1 (Invitrogen) was added to start the assay, after incubation for 25 min at 25 °C. The assay was stopped using 5X protein denaturing buffer (LDS) solution (5 µL). To further denature the protein, heat (70° C) was applied […]
electrophoresis (at 200 V). 10 µL of each reaction was loaded into the precast plates and electrophoresis was allowed to proceed. After completion of electrophoresis, the front part of the precast gel plate (holding hot ATP) was cut and afterwards cast -off.
The dried gel was developed using a phosphor screen. […]
Computerized Prism 5 program was used to statistically analyzed data using one-way ANOVA test followed by Tukey’s as post ANOVA for multiple comparison at P ≤.05.
Data were presented as mean ± SEM.

Series [9] deals with T1, EGFR. Also on record: CD, amino acids 645–1186); His6 (N); made in house; host or cells: Sf-9 insect cells (baculovirus; pBlueBacHis2B / pFASTBacHTc. The conditions noted are these: cited from earlier work.
The subject of series [10] is BRAF^V600E. The conditions noted are these: cited from earlier work.

Like-named read-outs stand apart in the source and are kept apart here.

T2 sequence (P28028 whole entry V585E): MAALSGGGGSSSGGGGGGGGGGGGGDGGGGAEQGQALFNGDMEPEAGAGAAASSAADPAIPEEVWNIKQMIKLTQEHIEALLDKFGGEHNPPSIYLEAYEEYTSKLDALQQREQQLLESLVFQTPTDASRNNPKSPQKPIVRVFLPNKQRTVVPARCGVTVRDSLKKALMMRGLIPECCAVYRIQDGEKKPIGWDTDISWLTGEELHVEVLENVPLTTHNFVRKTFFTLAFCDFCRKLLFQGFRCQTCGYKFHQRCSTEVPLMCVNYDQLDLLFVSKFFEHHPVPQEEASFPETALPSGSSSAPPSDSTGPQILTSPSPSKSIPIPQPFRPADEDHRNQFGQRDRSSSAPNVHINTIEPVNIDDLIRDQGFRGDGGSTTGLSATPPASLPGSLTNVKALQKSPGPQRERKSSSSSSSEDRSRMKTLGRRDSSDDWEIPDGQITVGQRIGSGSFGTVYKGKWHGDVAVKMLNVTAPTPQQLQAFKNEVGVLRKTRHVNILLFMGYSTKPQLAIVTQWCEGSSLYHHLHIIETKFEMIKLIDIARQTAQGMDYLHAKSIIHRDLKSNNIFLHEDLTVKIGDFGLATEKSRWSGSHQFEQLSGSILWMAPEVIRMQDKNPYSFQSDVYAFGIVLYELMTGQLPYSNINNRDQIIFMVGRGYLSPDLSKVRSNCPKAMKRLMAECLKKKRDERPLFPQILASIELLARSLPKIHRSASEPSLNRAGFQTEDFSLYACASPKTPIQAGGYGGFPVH

A word on the IC50: it is the concentration at which inhibition is half-maximal. As usually defined, the GI50 is the concentration giving 50% growth inhibition. A high value points to less potent growth inhibition. Usually viability stands for a read-out of living cells in per cent, often relative to untreated cells. A low value points to a greater loss of cells. Turning to `CCOC(=O)c1[nH]c2ccc(Cl)cc2c1CNCCc1ccccc1` [Compound 3a, Ethyl 5-chloro-3-((phenethylamino)methyl)-1H-indole-2-carboxylate], the IC50 in series [1] is 36 ± 3 nM; in [3] it was 35 ± 3 nM; in series [4], 36 ± 3 nM; in series [6] it was 33 ± 3 nM; in series [7], 85 ± 6 nM; in series [8], 43 ± 4 nM. In series [2], this molecule showed a GI50 of 35 nM. The molecule also yielded a viability at 96 h, 50 µM in series [5] of 87%. The “fold less potent than vemurafenib (BRAF^V600E IC50)” value in series [8] (relative to vemurafenib IC50 = 30 nM) is 1.4 fold.
As for `CCOC(=O)c1[nH]c2ccc(Cl)cc2c1CNCCc1ccc(N2CCCCC2)cc1` [Compound 3c, Ethyl 5-chloro-3-((4-(piperidin-1-yl)phenethylamino)methyl)-1H-indole-2-carboxylate], the IC50 is 44 ± 4 nM in series [1]; 45 ± 4 nM in series [3]; 42 ± 4 nM in series [4]; 41 ± 4 nM in series [6]; 89 ± 6 nM in series [7]; 67 ± 6 nM in series [8]. Moreover, the GI50 in series [2] was determined as 42 nM. For the same molecule, the “fold less potent than 3e (GI50)” value in series [2] is on record as 1.5 fold. The viability at 96 h, 50 µM in [5] was found to be 89%.
Consider `CCOC(=O)c1[nH]c2ccc(Cl)cc2c1CNCCc1ccc(N2CCCC2C)cc1` (stereo not shown) [Compound 3d, Ethyl 5-chloro-3-((4-(2-methylpyrrolidin-1-yl)phenethylamino)methyl)-1H-indole-2-carboxylate], for which the IC50 worked out at 38 ± 3 nM in [1]; 40 ± 4 nM in [3]; 38 ± 3 nM in series [4]; 37 ± 3 nM in series [6]; 82 ± 7 nM in [7]; 54 ± 5 nM in series [8]. The same molecule came in with a GI50 in series [2] of 38 nM. Further, the “fold less potent than 3e (GI50)” value in series [2] was found to be 1.3 fold. In series [5], this molecule showed a viability at 96 h, 50 µM of 90%.
In the case of `O=C(O)c1[nH]c2ccc(Cl)cc2c1CNCCc1ccccc1` [Compound 4a, 5-Chloro-3-((phenethylamino)methyl)-1H-indole-2-carboxylic acid], the IC50 in series [1] stood at 78 ± 7 nM; in series [3], 79 ± 7 nM; in [4], 78 ± 7 nM; in [6] it was 75 ± 7 nM. Also, halving of growth in [2] (GI50) required 78 nM. The molecule further gave a viability at 96 h, 50 µM in series [5] of 91%.
In the case of `O=C(O)c1[nH]c2ccc(Cl)cc2c1CNCCc1ccc(N2CCCC2)cc1` [Compound 4b, 5-Chloro-3-((4-(pyrrolidin-1-yl)phenethylamino)methyl)-1H-indole-2-carboxylic acid], the IC50 in series [1] is 68 ± 6 nM; in series [3] it was 69 ± 6 nM; in series [4], 68 ± 6 nM; in series [6] it was 65 ± 6 nM. This molecule also displayed a GI50 in [2] of 68 nM. This molecule came in with a viability at 96 h, 50 µM in [5] of 89%.
Take `O=C(O)c1[nH]c2ccc(Cl)cc2c1CNCCc1ccc(N2CCCCC2)cc1` [Compound 4c, 5-Chloro-3-((4-(piperidin-1-yl)phenethylamino)methyl)-1H-indole-2-carboxylic acid]: the IC50 in [1] was determined as 75 ± 7 nM; in [3], 73 ± 7 nM; in series [4] it was 72 ± 7 nM; in series [6] it was 69 ± 7 nM. In series [2], this molecule registered a GI50 of 72 nM. For the same molecule, the viability at 96 h, 50 µM in series [5] worked out at 87%.
For the molecule `O=C1c2[nH]c3ccc(Cl)cc3c2CN1CCc1ccccc1` [Compound 5a, 7-Chloro-2-phenethyl-1,2-dihydropyrrolo [3,4-b]indol-3(4H)-one], the IC50 in series [1] worked out at 49 ± 5 nM; in series [3] it was 48 ± 5 nM; in [4], 50 ± 5 nM; in [6], 46 ± 4 nM. This molecule registered a GI50 in [2] of 48 nM. In [5], this molecule registered a viability at 96 h, 50 µM of 89%.
In the case of `O=C1c2[nH]c3ccc(Cl)cc3c2CN1CCc1ccc(N2CCCC2)cc1` [Compound 5b, 7-Chloro-2-(4-(pyrrolidin-1-yl)phenethyl)-1,2-dihydropyrrolo [3,4-b]indol-3(4H)-one], the IC50 in series [1] worked out at 66 ± 6 nM; in series [3] it was 61 ± 6 nM; in series [4], 64 ± 6 nM; in series [6], 58 ± 5 nM. The molecule also returned a GI50 in series [2] of 62 nM. Besides, the viability at 96 h, 50 µM in series [5] came out at 89%.
As for `O=C1c2[nH]c3ccc(Cl)cc3c2CN1CCc1ccc(N2CCCCC2)cc1` [Compound 5c, 7-Chloro-2-(4-(piperidin-1-yl)phenethyl)-1,2-dihydropyrrolo [3,4-b]indol-3(4H)-one], the IC50 is 57 ± 5 nM in [1], 53 ± 5 nM in [3], 55 ± 5 nM in series [4] and 51 ± 5 nM in [6]. The GI50 in series [2] is 54 nM. In addition, the viability at 96 h, 50 µM in series [5] amounted to 91%.
For `O=C(NCCc1ccc(N2CCOCC2)cc1)c1[nH]c2ccc(Cl)cc2c1CO` [Compound IVc], the IC50 in series [9] is 120 nM.
Turning to `Cc1c2cc(Cl)ccc2n2cc(Cc3ccccc3)[nH]c(=O)c12` [Compound V], the IC50 in [10] is 100 nM.
On to `CCOCc1c2n(c3ccc(Cl)cc13)C(=O)CN(CCc1ccc(N3CCOCC3)cc1)C2=O` [VII], for which the results for the IC50 in series [10] and in series [9] were 45 nM and 32 nM, respectively.

(Values after article PMC9921301, “Design, Synthesis, and Antiproliferative Activity of New 5-Chloro-indole-2-carboxylate and Pyrrolo[3,4-b]indol-3-one Derivatives as Potent Inhibitors of EGFR^T790M/BRAF^V600E Pathways” (Molecules, 2023).)
